Results on five compounds are retold here after patent US8686113B2 (priority 2009, dated 2014).

Converted amounts (≈) assume the structure as drawn. Non-standard residues stand in square brackets, D forms with d. Residues, ends and D or L forms follow the SMILES beside them. Arg(NO2) = N=C(NCCC[C@H](N)C(=O)O)N[N+](=O)[O-]; NMeR = CN[C@@H](CCCNC(=N)N)C(=O)O; Agp = N=C(N)NC[C@H](N)C(=O)O; Orn = NCCC[C@H](N)C(=O)O; Dap = NC[C@H](N)C(=O)O

The test system of assay [1] is E. coli BL21 A1. The format is cell-based, Escherichia coli. The note with it: BL21, 20 h. On the procedure:
(§1) The minimum inhibitory concentrations (MIC) of the antimicrobial peptides and peptide derivatives were determined in microdilution assays. These used a continuous peptide dilution in sterile flat-bottomed 96-well microtiter plates (polystyrene, Greiner Bio-One GmbH, Frickenhausen, Germany) and a total volume of 100 μL per well. The aqueous peptide or peptidomimetic solutions were diluted with 1% TSB water, to obtain a final concentration of 256 μg/mL. 50 μL of the peptide or peptidomimetic solution was pipetted into the first well of each series and stirred. From this solution, 50 μL was transferred to the second well, stirred and again 50 μL was transferred to the next well, and so on. A double dilution series is obtained, beginning at 256 μg/mL in the first well to 125 ng/mL in the twelfth well. The bacteria, e.g. E. coli BL21 A1, were cultured overnight at 37° C. in nutrient broth (NB, Carl Roth GmbH+Co. KG, Karlsruhe, Germany). 50 μL of a 5×10^6 bacteria/mL suspension in 1% TSB was added to each well of the microtiter plate and thus a final concentration of the peptides or peptidomimetics from 128 μg/mL (well 1) to 62.5 ng/mL (well 12) was established in each series. The plates were incubated at 37° C. for 20 h and then the absorption was measured at 595 nm with a TECAN microtiter plate spectrophotometer (Tecan Trading AG, Mannedorf, Switzerland). The MIC values of all peptides and peptidomimetics were determined in triplicate. Sterile water was used as negative control. The MIC value represents the lowest peptide concentration at which no bacterial growth is observed after an incubation time of 20 h at 37° C.
(§2) The MIC values of the peptides and peptide derivatives against Escherichia coli BL21 A1 and Micrococcus luteus ATCC 10240 are given in Table 7.

The subject of assay [2] is M. luteus 10240. In words: Growth inhibition assay (microdilution MIC). It counts as cell-based, Micrococcus luteus. As to conditions: 10240, 20 h. As for the experimental part: as §1, §2

On to `CC[C@H](C)[C@H](NC(=O)[C@H](CCCNC(=N)N)NC(=O)[C@H](CCCNC(=N)N)NC(=O)[C@@H]1CCCN1C(=O)[C@@H]1CCCN1C(=O)[C@H](CCCNC(=N)N)NC(=O)[C@@H]1CCCN1C(=O)[C@H](CCCNC(=N)N)NC(=O)[C@@H]1CCCN1C(=O)[C@H](CC(C)C)NC(=O)[C@H](Cc1ccc(O)cc1)NC(=O)[C@@H]1CCCN1C(=O)[C@@H]1CCCN1C(=O)[C@H](CCCCN)NC(=O)[C@H](CC(=O)O)NC(=O)[C@@H](N)C(C)C)C(=O)N[C@@H](Cc1ccc(O)cc1)C(=O)N[C@@H](CC(N)=O)C(=O)N[C@@H](CCCN)C(=O)N[C@@H](CC(N)=O)C(N)=O` [compound 26] (H-VDKPPYLPRPRPPRRIYN[Orn]N-NH2), for which the “MIC E. coli BL21 A1” value in assay [1] came to 8 µg/mL (≈ 3.25 µM). Besides, the “MIC M. luteus 10240” value in assay [2] was 8 µg/mL (≈ 3.25 µM).
On to `CC[C@H](C)[C@H](NC(=O)[C@H](CCCNC(=N)N)NC(=O)[C@H](CCCNC(=N)N)NC(=O)[C@@H]1CCCN1C(=O)[C@@H]1CCCN1C(=O)[C@H](CCCNC(=N)N)NC(=O)[C@@H]1CCCN1C(=O)[C@H](CCCNC(=N)N)NC(=O)[C@@H]1CCCN1C(=O)[C@H](CC(C)C)NC(=O)[C@H](Cc1ccc(O)cc1)NC(=O)[C@@H]1CCCN1C(=O)[C@@H]1CCCN1C(=O)[C@H](CCCCN)NC(=O)[C@H](CC(=O)O)NC(=O)[C@@H](N)C(C)C)C(=O)N[C@@H](Cc1ccc(O)cc1)C(=O)N[C@@H](CC(N)=O)C(=O)N[C@@H](CNC(C)=O)C(N)=O` [compound 52] (H-VDKPPYLPRPRPPRRIYN[Dap](Ac)-NH2; N-terminus assumed), for which the “MIC E. coli BL21 A1” value in assay [1] worked out at 32 µg/mL (≈ 13.5 µM). Besides, the “MIC M. luteus 10240” value in assay [2] came out at 64 µg/mL (≈ 27.1 µM).
The matching figures for `CC[C@H](C)[C@H](NC(=O)[C@H](CCCNC(=N)N)NC(=O)[C@H](CCCNC(=N)N)NC(=O)[C@@H]1CCCN1C(=O)[C@@H]1CCCN1C(=O)[C@H](CCCNC(=N)N)NC(=O)[C@@H]1CCCN1C(=O)[C@H](CCCNC(=N)N)NC(=O)[C@@H]1CCCN1C(=O)[C@H](CC(C)C)NC(=O)[C@H](Cc1ccc(O)cc1)NC(=O)[C@@H]1CCCN1C(=O)[C@@H]1CCCN1C(=O)[C@H](CCCCN)NC(=O)[C@H](CC(=O)O)NC(=O)[C@@H](N)C(C)C)C(=O)N[C@@H](Cc1ccc(O)cc1)C(=O)N[C@@H](CC(N)=O)C(=O)N[C@@H](CNC(=N)N)C(N)=O` [compound 54] (H-VDKPPYLPRPRPPRRIYN[Agp]-NH2): 8 µg/mL (≈ 3.39 µM) and 8 µg/mL (≈ 3.39 µM).
As to `CC[C@H](C)[C@H](NC(=O)[C@H](CCCNC(=N)N)NC(=O)[C@H](CCCNC(=N)N)NC(=O)[C@@H]1CCCN1C(=O)[C@@H]1CCCN1C(=O)[C@H](CCCNC(=N)N)NC(=O)[C@@H]1CCCN1C(=O)[C@H](CCCNC(=N)N)NC(=O)[C@@H]1CCCN1C(=O)[C@H](CC(C)C)NC(=O)[C@H](Cc1ccc(O)cc1)NC(=O)[C@@H]1CCCN1C(=O)[C@@H]1CCCN1C(=O)[C@H](CCCCN)NC(=O)[C@H](CC(=O)O)NC(=O)[C@@H](N)C(C)C)C(=O)N[C@@H](Cc1ccc(O)cc1)C(=O)N[C@@H](CC(N)=O)C(=O)N[C@@H](CCCNC(=N)N[N+](=O)[O-])C(N)=O` [compound 55] (H-VDKPPYLPRPRPPRRIYN[Arg(NO2)]-NH2), in assay [1], the “MIC E. coli BL21 A1” value was 8 µg/mL (≈ 3.29 µM). In addition, the “MIC M. luteus 10240” value in assay [2] was 16 µg/mL (≈ 6.57 µM).
Taken in the same sequence, the figures for `CC[C@H](C)[C@H](NC(=O)[C@H](CCCNC(=N)N)NC(=O)[C@H](CCCNC(=N)N)NC(=O)[C@@H]1CCCN1C(=O)[C@@H]1CCCN1C(=O)[C@H](CCCNC(=N)N)NC(=O)[C@@H]1CCCN1C(=O)[C@H](CCCNC(=N)N)NC(=O)[C@@H]1CCCN1C(=O)[C@H](CC(C)C)NC(=O)[C@H](Cc1ccc(O)cc1)NC(=O)[C@@H]1CCCN1C(=O)[C@@H]1CCCN1C(=O)[C@H](CCCCN)NC(=O)[C@H](CC(=O)O)NC(=O)[C@@H](N)C(C)C)C(=O)N[C@@H](Cc1ccc(O)cc1)C(=O)N[C@@H](CC(N)=O)C(=O)N(C)[C@@H](CCCNC(=N)N)C(N)=O` [compound 56] (H-VDKPPYLPRPRPPRRIYN[NMeR]-NH2; N-terminus assumed) were 8 µg/mL (≈ 3.33 µM) and 4 µg/mL (≈ 1.66 µM).
